The values that follow come from patent US20230365537A1, “POLO LIKE KINASE 4 INHIBITORS” (ORIC Pharmaceuticals, Inc., priority 2021, published 2023).

One assay has as its target human recombinant PLK4 (Homo sapiens (Human), UniProt O00444). The assay can be described thus: PLK4 Biochemical Assay (ADP-Glo). Conditions: 0.5 nM PLK4, 8.0 µM ATP, 4.7 µM MBP, 6 hours at RT. In short, it runs like this:
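Luminescent ADP-Glo detection quantified ADP production, with ATP depletion for 40 min and detection for 30 min at room temperature. Compound and PLK4 (1.0 nM stock addition) were preincubated 15 min in HEPES pH 7.5 buffer containing MgCl2, EGTA, DTT, Brij-35 and BSA. IC50 values were obtained by four-parameter nonlinear regression.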

In a further assay the test system is CHP-134 cells. As to the kind of experiment: CHP134 CellTiter-Glo (CTG) Assay. The class given is cell-based. Conditions: Homo sapiens, CHP-134, 120 h, 5 days, viable cells by CellTiter-Glo. Summed up: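 Nine-point 1:3 dilution series, diluted into growth media, added in quadruplicate to CHP-134 cells plated 16 h earlier at 200 cells/well.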
Assay [1] addresses human recombinant Aurora A (Homo sapiens (Human), UniProt O14965). As to the kind of experiment: Aurora A Kinase Biochemical Assay (ADP-Glo). Conditions: ratio of Aurora A IC50 to PLK4 IC50 (selectivity).
Assay [2] deals with human recombinant Aurora B (Homo sapiens (Human), UniProt Q96GD4). As to the kind of experiment: Aurora B Kinase Biochemical Assay (ADP-Glo). Conditions: ratio of Aurora B IC50 to PLK4 IC50 (selectivity). Summed up: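 IC50 derived by four-parameter nonlinear fit of ADP-Glo luminescence (ADP produced). Compound was preincubated 15 min at RT with 20 nM recombinant human Aurora B, in 50 mM HEPES pH 7.5, 10 mM MgCl2, 1 mM EGTA, 1 mM DTT, 0.01% Brij-35/BSA.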
Sequence of human recombinant Aurora B (Q96GD4 whole entry): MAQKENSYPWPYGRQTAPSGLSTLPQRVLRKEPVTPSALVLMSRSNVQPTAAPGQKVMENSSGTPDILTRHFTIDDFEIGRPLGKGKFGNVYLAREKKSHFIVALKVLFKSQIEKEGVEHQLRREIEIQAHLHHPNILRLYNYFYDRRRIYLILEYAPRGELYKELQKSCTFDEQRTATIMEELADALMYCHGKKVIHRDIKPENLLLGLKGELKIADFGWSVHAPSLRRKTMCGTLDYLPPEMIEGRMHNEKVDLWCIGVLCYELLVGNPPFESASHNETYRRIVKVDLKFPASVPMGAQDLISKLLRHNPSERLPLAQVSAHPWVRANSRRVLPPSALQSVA

The structures appear in SMILES notation.

Sequence of human recombinant Aurora A (O14965 whole entry): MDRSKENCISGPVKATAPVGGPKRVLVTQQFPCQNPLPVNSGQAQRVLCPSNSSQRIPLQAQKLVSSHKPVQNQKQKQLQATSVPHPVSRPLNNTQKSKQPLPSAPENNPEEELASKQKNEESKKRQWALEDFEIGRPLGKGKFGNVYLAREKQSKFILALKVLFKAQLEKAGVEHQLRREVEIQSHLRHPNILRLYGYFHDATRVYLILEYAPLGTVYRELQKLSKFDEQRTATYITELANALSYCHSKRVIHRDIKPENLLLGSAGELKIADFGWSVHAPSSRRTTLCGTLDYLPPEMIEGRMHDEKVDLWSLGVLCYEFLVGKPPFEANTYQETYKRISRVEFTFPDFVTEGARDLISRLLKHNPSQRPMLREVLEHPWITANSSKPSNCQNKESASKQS
Sequence of human recombinant PLK4 (O00444 whole entry): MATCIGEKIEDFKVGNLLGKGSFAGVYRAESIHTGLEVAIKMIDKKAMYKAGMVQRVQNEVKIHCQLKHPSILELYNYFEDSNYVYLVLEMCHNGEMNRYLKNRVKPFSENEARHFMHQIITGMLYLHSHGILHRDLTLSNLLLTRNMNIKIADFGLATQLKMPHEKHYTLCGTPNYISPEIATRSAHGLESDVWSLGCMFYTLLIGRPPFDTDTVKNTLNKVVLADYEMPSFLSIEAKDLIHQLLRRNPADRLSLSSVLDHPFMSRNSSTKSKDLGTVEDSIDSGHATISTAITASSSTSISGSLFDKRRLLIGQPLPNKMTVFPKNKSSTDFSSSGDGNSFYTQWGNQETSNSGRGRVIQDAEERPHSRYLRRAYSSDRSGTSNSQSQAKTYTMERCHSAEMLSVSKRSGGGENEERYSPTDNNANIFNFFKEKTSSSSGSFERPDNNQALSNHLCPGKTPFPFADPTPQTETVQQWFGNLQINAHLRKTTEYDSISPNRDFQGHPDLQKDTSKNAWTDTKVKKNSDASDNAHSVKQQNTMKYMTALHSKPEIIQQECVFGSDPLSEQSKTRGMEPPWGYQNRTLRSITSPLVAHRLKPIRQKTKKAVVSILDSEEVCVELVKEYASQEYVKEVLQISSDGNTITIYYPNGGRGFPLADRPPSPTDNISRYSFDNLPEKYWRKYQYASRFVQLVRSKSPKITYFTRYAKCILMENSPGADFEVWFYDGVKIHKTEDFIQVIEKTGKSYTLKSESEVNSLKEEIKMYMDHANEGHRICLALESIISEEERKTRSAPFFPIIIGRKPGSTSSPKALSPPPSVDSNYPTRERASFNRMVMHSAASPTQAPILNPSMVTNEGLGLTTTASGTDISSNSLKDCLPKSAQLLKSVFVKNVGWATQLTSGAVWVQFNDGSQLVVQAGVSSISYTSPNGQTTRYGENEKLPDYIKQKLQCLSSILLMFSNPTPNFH

In the case of `COc1ccc2c(c1)[C@]1(C[C@H]1c1ccc3c(Nc4nc(C)nc5c4CCC5)n[nH]c3c1)C(=O)N2` [Example 159, (1R,2S)-5′-methoxy-2-{3-[(2-methyl-6,7-dihydro-5H-cyclopenta[d]pyrimidin-4-yl)amino]-1H-indazol-6-yl}spiro[cyclopropane-1,3′-indol]-2′(1′H)-one], the IC50 stood at 1.96 nM on human recombinant PLK4 and 1300 nM with CHP-134 cells. Moreover, in assay [1], the “[Aurora A IC50 (nM)]/[PLK4 IC50 (nM)]” value was found to be 309.7350. In assay [2], the “[Aurora B IC50 (nM)]/[PLK4 IC50 (nM)]” value was 58.0530.

For `CCc1ncc(OC)c(Nc2n[nH]c3cc([C@@H]4C[C@@]45C(=O)Nc4ccc(OC)cc45)ccc23)n1` [Example 160, (1R,2S)-2-{3-[(2-ethyl-5-methoxypyrimidin-4-yl)amino]-1H-indazol-6-yl}-5′-methoxyspiro[cyclopropane-1,3′-indol]-2′(1′H)-one], the IC50 turned out to be 1.93 nM at human recombinant PLK4 and 310 nM in the assay with CHP-134 cells. In addition, the “[Aurora A IC50 (nM)]/[PLK4 IC50 (nM)]” value in assay [1] came to 545.5487. The “[Aurora B IC50 (nM)]/[PLK4 IC50 (nM)]” value in assay [2] was determined as 149.5859.

As for `COc1ccc2c(c1)[C@]1(C[C@H]1c1ccc3c(Nc4cc5cccnc5cc4OC)n[nH]c3c1)C(=O)N2` [Example 161, (1R,2S)-5′-methoxy-2-{3-[(7-methoxyquinolin-6-yl)amino]-1H-indazol-6-yl}spiro[cyclopropane-1,3′-indol]-2′(1′1H)-one], the results for the IC50 at human recombinant PLK4 and in the assay with CHP-134 cells were 2.21 nM and 352 nM, respectively. In assay [1], the “[Aurora A IC50 (nM)]/[PLK4 IC50 (nM)]” value came to 291.4932. In assay [2], the “[Aurora B IC50 (nM)]/[PLK4 IC50 (nM)]” value came to 258.4163.

As for `COc1ccc2c(c1)[C@]1(C[C@H]1c1ccc3c(Nc4nc5ccccc5cc4OC)n[nH]c3c1)C(=O)N2` [Example 163, (1R,2S)-5′-methoxy-2-{3-[(3-methoxyquinolin-2-yl)amino]-1H-indazol-6-yl}spiro[cyclopropane-1,3′-indol]-2′(1′H)-one], the IC50 at human recombinant PLK4 was determined as 1.52 nM; with CHP-134 cells it was 226 nM. Also, the “[Aurora A IC50 (nM)]/[PLK4 IC50 (nM)]” value in assay [1] was found to be 2164.0420. In addition, the “[Aurora B IC50 (nM)]/[PLK4 IC50 (nM)]” value in assay [2] worked out at 389.4357.

As to `COc1cnc(OC)c(Nc2n[nH]c3cc([C@@H]4C[C@@]45C(=O)Nc4ccc(OC)cc45)ccc23)c1` [Example 164, (1R,2S)-2-{3-[(2,5-dimethoxypyridin-3-yl)amino]-1H-indazol-6-yl}-5′-methoxyspiro[cyclopropane-1,3′-indol]-2′(1′H)-one], the figures for the IC50 at human recombinant PLK4 and in the assay with CHP-134 cells were 6.28 nM and 1640 nM, respectively. The “[Aurora A IC50 (nM)]/[PLK4 IC50 (nM)]” value in assay [1] was 397.0049. Moreover, the “[Aurora B IC50 (nM)]/[PLK4 IC50 (nM)]” value in assay [2] was 161.2235.

For the compound `COc1ccc2c(c1)[C@]1(C[C@H]1c1ccc3c(Nc4nc(Cl)nc5ccoc45)n[nH]c3c1)C(=O)N2` [Example 165, (1R,2S)-2-{3-[(2-chlorofuro[3,2-d]pyrimidin-4-yl)amino]-1H-indazol-6-yl}-5′-methoxyspiro[cyclopropane-1,3′-indol]-2′(1′H)-one], the IC50 was determined as 4.68 nM on human recombinant PLK4 and 1060 nM in the assay with CHP-134 cells. Moreover, in assay [1], the “[Aurora A IC50 (nM)]/[PLK4 IC50 (nM)]” value worked out at 111.2559. The “[Aurora B IC50 (nM)]/[PLK4 IC50 (nM)]” value in assay [2] is 76.9329.

For `COc1ccc2c(c1)[C@]1(C[C@H]1c1ccc3c(Nc4ccc(C(=O)N(C)C)nc4OC)n[nH]c3c1)C(=O)N2` [Example 166, 6-methoxy-5-({6-[(1R,2S)-5′-methoxy-2′-oxo-1′,2′-dihydrospiro[cyclopropane-1,3′-indol]-2-yl]-1H-indazol-3-yl}amino)-N,N-dimethylpyridine-2-carboxamide], the IC50 on human recombinant PLK4 is 0.802 nM; with CHP-134 cells it was 80.6 nM. Further, the “[Aurora A IC50 (nM)]/[PLK4 IC50 (nM)]” value in assay [1] came out at 1151.3716. In addition, the “[Aurora B IC50 (nM)]/[PLK4 IC50 (nM)]” value in assay [2] stood at 68.4539.

Turning to `COc1ccc2c(c1)[C@]1(C[C@H]1c1ccc3c(Nc4nc(N5CCCC5)ncc4OC)n[nH]c3c1)C(=O)N2` [Example 167, (1R,2S)-5′-methoxy-2-(3-{[5-methoxy-2-(pyrrolidin-1-yl)pyrimidin-4-yl)amino}-1H-indazol-6-yl)spiro[cyclopropano-1,3′-indol]-2′(1′H)-one], the IC50 at human recombinant PLK4 is 1.18 nM; in the assay on CHP-134 cells, 212 nM. In assay [1], the “[Aurora A IC50 (nM)]/[PLK4 IC50 (nM)]” value came to 295.5932. Also, the “[Aurora B IC50 (nM)]/[PLK4 IC50 (nM)]” value in assay [2] came to 916.9492.

Regarding `COc1ccc2c(c1)[C@]1(C[C@H]1c1ccc3c(Nc4nc(N5CC[C@@H](F)C5)ncc4OC)n[nH]c3c1)C(=O)N2` [Example 169], the IC50 on human recombinant PLK4 was determined as 0.995 nM; in the assay with CHP-134 cells, 188 nM. The “[Aurora A IC50 (nM)]/[PLK4 IC50 (nM)]” value in assay [1] came to 666.9347. In addition, in assay [2], the “[Aurora B IC50 (nM)]/[PLK4 IC50 (nM)]” value amounted to 431.4573.

Regarding `COc1ccc2c(c1)[C@]1(C[C@H]1c1ccc3c(Nc4nc(N5CCC(F)(F)C5)ncc4OC)n[nH]c3c1)C(=O)N2` [Example 170, (1R,2S)-2-(3-{[2-(3,3-difluoropyrrolidin-1-yl)-5-methoxypyrimidin-4-yl]amino}-1H-indazol-6-yl)-5′-methoxyspiro[cyclopropane-1,3′-indol]-2′(1′H)-one], the figures for the IC50 at human recombinant PLK4 and with CHP-134 cells were 1.36 nM and 326 nM, respectively. In assay [1], the “[Aurora A IC50 (nM)]/[PLK4 IC50 (nM)]” value is on record as 694.1090. Moreover, the “[Aurora B IC50 (nM)]/[PLK4 IC50 (nM)]” value in assay [2] came to 587.9234.

With `COc1ccc2c(c1)[C@]1(C[C@H]1c1ccc3c(Nc4nc(Cl)nc5ccn(C)c45)n[nH]c3c1)C(=O)N2` [Example 171, (1R,2S)-2-{3-[(2-chloro-5-methyl-5H-pyrrolo[3,2-d]pyrimidin-4-yl)amino]-1H-indazol-6-yl}-5′-methoxyspiro[cyclopropane-1,3′-indol]-2′(1′H)-one], the IC50 on human recombinant PLK4 is 5.87 nM; in the assay on CHP-134 cells, 1520 nM. For the same compound, in assay [1], the “[Aurora A IC50 (nM)]/[PLK4 IC50 (nM)]” value stood at 1176.6309. In assay [2], the “[Aurora B IC50 (nM)]/[PLK4 IC50 (nM)]” value amounted to 259.2403.

`COc1ccc2c(c1)[C@]1(C[C@H]1c1ccc3c(Nc4nc(C#N)ncc4OC)n[nH]c3c1)C(=O)N2` [Example 172, 5-methoxy-4-({6-[(1R,2S)-5′-methoxy-2′-oxo-1′,2′-dihydrospiro[cyclopropane-1,3′-indol]-2-yl]-1H-indazol-3-yl}amino)pyrimidine-2-carbonitrile]: the IC50 came out at 4.09 nM at human recombinant PLK4 and 1260 nM with CHP-134 cells. In addition, the “[Aurora A IC50 (nM)]/[PLK4 IC50 (nM)]” value in assay [1] stood at 324.94. Also, the “[Aurora B IC50 (nM)]/[PLK4 IC50 (nM)]” value in assay [2] was found to be 202.96.

Regarding `COc1ccc2c(c1)[C@]1(C[C@H]1c1ccc3c(Nc4nc(N5CC(F)(F)C5)ncc4OC)n[nH]c3c1)C(=O)N2` [Example 173, (1R,2S)-2-(3-([2-(3,3-difluoroazetidin-1-yl)-5-methoxypyrimidin-4-yl]amino}-1H-indazol-6-yl)-5′-methoxyspiro[cyclopropane-1,3′-indol]-2′(1 ‘H)-one], the IC50 at human recombinant PLK4 turned out to be 2.67 nM; with CHP-134 cells, 332 nM. Besides, the “[Aurora A IC50 (nM)]/[PLK4 IC50 (nM)]” value in assay [1] is listed as 301.0878. Besides, the “[Aurora B IC50 (nM)]/[PLK4 IC50 (nM)]” value in assay [2] stood at 314.9287.

For `COc1ccc2c(c1)[C@]1(C[C@H]1c1ccc3c(Nc4nc(N5CC(F)C5)ncc4OC)n[nH]c3c1)C(=O)N2` [Example 174, (1R,2S)-2-(3-{[2-(3-fluoroazetidin-1-yl)-5-methoxypyrimidin-4-yl]amino}-1H-indazol-6-yl)-5′-methoxyspiro[cyclopropane-1,3′-indol]-2′(1′H)-one], the IC50 worked out at 1.92 nM at human recombinant PLK4 and 392 nM in the assay with CHP-134 cells. The “[Aurora A IC50 (nM)]/[PLK4 IC50 (nM)]” value in assay [1] came to 365.8511. For the same compound, the “[Aurora B IC50 (nM)]/[PLK4 IC50 (nM)]” value in assay [2] was determined as 353.7741.
